Data as given in patent US20210260069A1, “IRE1a INHIBITOR IN COMBINATION WITH CANCER [sequence] AGENT FOR CANCER TREATMENT” (Fosun Orinove PharmaTech, Inc., priority 2018, published 2021).

Experiments:
[1] = Oral bioavailability test, dog; conditions: in vivo, 4 mg/kg dose
Protocol: (§1) All PK experiments are standard tests that performed in either WuXi PharmaTech or Charels River Laboratory. 4315 and 4485 (Orin 1001) were dosed PO as a suspension in 1% microcellulose (Sigma) and 50% Sucrouse (Sigma).

[2] = tested on: human breast adenocarcinoma MDA-MB231 tumor cells; assay type: in vivo
Protocol: Orin 1001 was administered by oral gavage in combination with paclitaxel in a xenograft mouse model using female NCr nu/nu mice (n=10 in each group) injected subcutaneously with human breast adenocarcinoma MDA-MB231 tumor cells. To evaluate the effect of Orin 1001 in combination with paclitaxel, Orin 1001 was administered via oral gavage at 75, 150 or 300 mg/kg/day in combination with paclitaxel at 10 mg/kg iv, weekly (n=10/group) for up to 60 days.

[3] = Oral bioavailability test, rat; conditions: in vivo, 10 mg/kg dose
Protocol: as §1

human liver HUH-7 cells = assay: Subcutaneous HUH-7 liver cancer xenograft model, survival (Example 23); assay type: in vivo, Female BALB/c nude mice
Protocol: Female BALB/c nude mice were subcutaneously inoculated with human liver HUH-7 cells (from JCRB) to establish a xenograft model of liver cancer. The scheduled administration cycle was 28 days. Animals were assigned into 4 groups (n=10/group): one vehicle group, two single treatment groups (Orin 1001 administered at 80 mg/kg/day q.d. for 28 days; Sorafenib administered following a dose regimen of 18.25 mg/kg/day q.d. for 5 days, then 25 mg/kg/day q.d. for 3 days, and then 45 mg/kg/day q.d. for 20 days, consecutively) and one combination treatment group (sorafenib administered following a dose regimen of 18.25 mg/kg/day q.d. for 5 days, then 25 mg/kg/day q.d. for 3 days, and then 45 mg/kg/day q.d. for 20 days, consecutively, whilst combined with Orin 1001 administered q.d. at a dose of 80 mg/kg/day for 28 days). All vehicle or administration treatments were given via oral gavage. Sorafenib was formulated with Kolliphor® EL/ethanol (2/1, v/v) and water. Orin 1001 was dissolved with cellulose microcrystalline and sucrose in purified water to form as suspension. The mice were euthanized if a tumor volume achieved over 2000 mm^3. Otherwise the experiment ended on the 6th day after the last administration.

IRE1α = biological target: T1, IRE1α (Mus musculus, UniProt Q9EQY0); assay: Liver PD screening assay: XBP-1 splicing analysis of liver after tunicamycin (Example 25); assay type: in vivo, BALB/c mice; conditions: PO, 2 hours after tunicamycin 1 mg/kg ip, liver 2 hours after dosing, FIG. 23, read-out: ED50 (inhibition of XBP-1 splicing in liver)
T1 construct: from tissue; host or cells: liver of BALB/c mice (in vivo)
Protocol: Example 25 was related to comparative PD/PK data of Orin 1001 VS compound 4315, as its structure shown below, which is an earlier lead of this series of compounds. Tunicamycin was used herein to activate IRE1, then Orin 1001 (also called 4485) or 4315 were given to inhibit the activating effect. […] Each gel panel represents one mouse liver sample as in the figure.
BALB/c mice were injected intraperitoneally with 100 microliters at an equivalent dose of 1 mg/kg tunicamycin solution. Two hours after tunicamycin injection, mice were dosed with compound of interest either PO or IV. Following 2 hours for PO delivery of compound, mice were euthanized according to IACUC protocols using CO2 from a […] source. A 1 cm^3 fragment of the liver for homogenization and extraction of the RNA were collected for further analysis. Total RNA is harvested from cells or tissue using TRIzol according to the manufacturer's procedures. After ethanol precipitation and resuspension of the RNA, RiboGreen (Invitrogen) is used to quantify the yield and normalize the RNA concentration in the source tube containing isolated RNA. RT-PCR is performed by Oligo(dT) priming, and SuperScript II (Invitrogen) transcription using the Amplitaq Gold Kit (Applied Biosystems) according to the manufacturer's protocols. Primers for human XBP-1 are 5_-[…]-3_ (forward, Seq ID No. 8) and 5_-[…]-3_ (reverse, Seq ID No. 9), and for mouse are 5_-[…]-3_ (forward, Seq ID No. 10) and 5_-[…]-3 (Seq ID No. 11). All DNA oligos were purchased from IDT DNA Technologies. PCR is run on a Bio-Rad PTC-100 96-well thermocycler with heating at 94° C. for 30 s, annealing at 58° C. for 30 s, and polymerizing at 72° C. for 30 s for 35 cycles. Reactions are run on 4% precast NuSieve gels from Cambrex and visualized by ethidium bromide staining and UV excitation.
as §1

Hep3B-Luc cells = assay: Orthotopic Hep3B-luc human liver xenograft model (Example 22); assay type: in vivo, female BALB/c nude mice
Protocol: The tumor was inoculated by injecting Hep3B-Luc cells (established by WuXi AppTec R&D center) mixed with BD Matrigel in 20 μl (PBS:Matrigel=1:1) into the left lobe of the liver. […] Sorafenib was formulated with Cremophor® EL/ethanol (1:1) and purified water to form a solution of 9 mg/ml. […] Tumor weight was measured at the termination of study. T/Cweight value (in percent) was calculated using the formula: T/Cweight%=Tweight/Cweight×100%, while Tweight and Cweight were the mean tumor weights of the treated and the vehicle control groups, respectively.

RPMI 8226 tumor cells = assay: Intratumoral XBP-1 spliced effect in Velcade treated RPMI xenografts; assay type: in vivo, Nude mice; conditions: Orin 1001 30 mg/kg PO on Day 27 in Velcade treated mice, tumor taken four hours later
Protocol: The mice were treated again on the 24th day with Velcade®. On Day 27, the mice were treated with Orin 1001 at 30 mg/kg PO, four hours later the mice were sacrificed as in Example 25, and tumor tissues were isolated. In a similar way as described for the liver PD test in Example 25, RNA extraction and RT-PCR analysis gave the results as shown FIG. 13.
BALB/c mice were injected intraperitoneally with 100 microliters at an equivalent dose of 1 mg/kg tunicamycin solution. Two hours after tunicamycin injection, mice were dosed with compound of interest either PO or IV. Following 2 hours for PO delivery of compound, mice were euthanized according to IACUC protocols using CO2 from a […] source. A 1 cm^3 fragment of the liver for homogenization and extraction of the RNA were collected for further analysis. Total RNA is harvested from cells or tissue using TRIzol according to the manufacturer's procedures. After ethanol precipitation and resuspension of the RNA, RiboGreen (Invitrogen) is used to quantify the yield and normalize the RNA concentration in the source tube containing isolated RNA. RT-PCR is performed by Oligo(dT) priming, and SuperScript II (Invitrogen) transcription using the Amplitaq Gold Kit (Applied Biosystems) according to the manufacturer's protocols. […]

[4] = Oral bioavailability test, mouse; conditions: in vivo, 10 mg/kg dose
Protocol: as §1

T1 sequence (Q9EQY0 21-977): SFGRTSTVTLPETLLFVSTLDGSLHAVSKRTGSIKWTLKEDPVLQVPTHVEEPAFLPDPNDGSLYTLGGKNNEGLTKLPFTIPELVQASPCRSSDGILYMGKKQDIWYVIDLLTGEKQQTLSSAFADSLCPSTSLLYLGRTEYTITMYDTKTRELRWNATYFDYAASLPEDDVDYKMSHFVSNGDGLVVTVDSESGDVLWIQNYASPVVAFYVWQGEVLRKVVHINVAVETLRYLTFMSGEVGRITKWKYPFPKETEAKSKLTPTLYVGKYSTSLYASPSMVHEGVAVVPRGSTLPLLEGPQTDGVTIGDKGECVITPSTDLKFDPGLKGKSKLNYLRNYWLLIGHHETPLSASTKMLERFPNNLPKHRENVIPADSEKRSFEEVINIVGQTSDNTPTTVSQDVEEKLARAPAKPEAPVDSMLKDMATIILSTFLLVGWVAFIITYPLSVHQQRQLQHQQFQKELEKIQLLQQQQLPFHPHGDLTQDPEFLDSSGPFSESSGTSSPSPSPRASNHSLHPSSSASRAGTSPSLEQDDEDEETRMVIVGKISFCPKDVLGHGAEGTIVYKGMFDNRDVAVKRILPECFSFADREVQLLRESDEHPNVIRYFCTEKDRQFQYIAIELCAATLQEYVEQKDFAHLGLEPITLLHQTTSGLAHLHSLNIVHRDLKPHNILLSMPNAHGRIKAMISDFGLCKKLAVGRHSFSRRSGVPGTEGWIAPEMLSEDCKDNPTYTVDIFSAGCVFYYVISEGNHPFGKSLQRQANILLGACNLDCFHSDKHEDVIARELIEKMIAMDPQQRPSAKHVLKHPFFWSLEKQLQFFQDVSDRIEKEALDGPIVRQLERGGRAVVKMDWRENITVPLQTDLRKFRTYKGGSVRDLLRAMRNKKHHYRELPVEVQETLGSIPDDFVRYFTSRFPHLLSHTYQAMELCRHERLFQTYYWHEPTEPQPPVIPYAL

SMILES: COc1cc2c(C)c(CC(=O)N3CCOCC3)c(=O)oc2c(C=O)c1O [Orin 1001]
- bioavailability [1]: 68.5%
- clinical signs of toxicity ([2]; 75, 150 or 300 mg/kg/day oral gavage with paclitaxel 10 mg/kg iv weekly, up to 60 days): no clinical signs of toxicity
- tolerability of extended oral dosing ([2]; up to 60 consecutive days): well tolerated
- bioavailability [3]: 52%
- Median Survival Time (MST) (human liver HUH-7 cells; Orin 1001 80 mg/kg/day q.d. 28 days, sorafenib 18.25/25/45 mg/kg, Kaplan-Meier): 20 days
- ILS (%) (increase of life span) (human liver HUH-7 cells; versus vehicle group (group 1)): 0%
- ED50 (IRE1α): < 2 mg/kg
- T/Cweight (%) (Hep3B-Luc cells; mean tumor weight treated / vehicle control, day 28): 56%
- Tumor Weight (g) at day 28 (Hep3B-Luc cells; oral gavage 28 consecutive days, Orin 1001 80 mg/kg/day, sorafenib 45 mg/kg/day): 2.68 ± 1.69 g
- inhibition of activated IRE1 (intratumoral XBP1s) (RPMI 8226 tumor cells): can inhibit the activity of the activated IRE1
- bioavailability [4]: 63%
